Test system: anti-human detection antibody
Test: CD3ε peptide ELISA, alkaline phosphatase based, peptides coated on Costar high binding plates
Set-up: species or system chicken
Conditions: single peptide coated on plate, plate blank subtracted, both peptides tested under the same conditions
From the text: The capture antibody of the CDR assay was produce by inoculation with 2 peptides. The sequence of these two peptides is AKAKPVTRGAGA (SEQ ID NO: 1) and LYSGLNQRRI (SEQ ID NO: 2) respectively. To determine the key immune-dominate region of the peptide, 12 variants of original peptide 1 (SEQ ID NO: 1) and 10 variants of original peptide 2 (SEQ ID NO: 2) were made with alanine substitution (or valine when alanine is the original amino acid). These were produced by GenScript, shipped, in solid form, at room temperature, to our lab and were dissolved in 1 ml of 0.05 TBS buffer.
Single peptides were coated on to Costar high binding 96 well plates at a concentration of 10 μg and 2 μg in 0.05 TBS buffer pH 7.4 in quadruplicate and tested in an alkaline phoshotase based ELISA. Plate blanks were subtracted from the optical densities obtained for each peptide. The peptides are compared to the original by percent of original signal. As noted in Table 1 the twelfth substitution was both an alanine at position twelve and a glutamic acid for threonine at position seven. This was an inadvertent oversight by the manufacturer.
The results from using a coating concentration of 2 μg/ml were similar.
The OD for original peptide 1 (SEQ ID NO: 1) was 1.5 and peptide 2 (SEQ ID NO: 2) elicited a signal of 1.0 when tested under the same conditions.

Sequence: AKAKPVTRGAGA (listed as Homo sapiens) [original peptide 1, CD3 epsilon immunogen peptide, 12AA]
- OD (optical density) by ELISA: 1.5

Sequence: LYSGLNQRRI (listed as Homo sapiens) [peptide 2, CD3 epsilon immunogen peptide, 10AA]
- OD (optical density) by ELISA: 1.0

From patent US8569450B2, “CD3 epsilon immunogens and antibodies” (Health Research Inc., priority 2010, dated 2013)
